Results: the NIST ThermoML archive (doi:10.1021/je0340809)
Numbers after ± are expanded uncertainties.

Assay: xn = mol fraction of the nth substance listed
Conditions: 101.3 kPa, Liquid

CN1CCCC1=O [N-methylpyrrolidone] + O
Conditions	mass density [kg/m3]	speed of sound [m/s]	viscosity [mPa·s]
298.15 K, x2 = 0.0522	1029.55 ± 0.69	1548.8 ± 6.4	1.721 ± 0.041
298.15 K, x2 = 0.1684	1032.9 ± 0.71	1561 ± 6.4	1.985 ± 0.046
298.15 K, x2 = 0.2465	1035.15 ± 0.72	1579.5 ± 6.5	2.147 ± 0.05
298.15 K, x2 = 0.3481	1038.13 ± 0.74	1616.8 ± 6.6	2.535 ± 0.059
298.15 K, x2 = 0.4534	1041.65 ± 0.76	1653.8 ± 6.7	3.346 ± 0.076
298.15 K, x2 = 0.5018	1043.41 ± 0.77	1667.7 ± 6.7	3.838 ± 0.087
298.15 K, x2 = 0.5493	1045.11 ± 0.78	1682 ± 6.8	4.338 ± 0.097
298.15 K, x2 = 0.6504	1047.71 ± 0.8	1711.3 ± 6.9	5.159 ± 0.11
298.15 K, x2 = 0.752	1046.06 ± 0.79	1738.2 ± 6.9	5.071 ± 0.11
298.15 K, x2 = 0.8536	1035.21 ± 0.72	1748.1 ± 7	3.65 ± 0.083
298.15 K, x2 = 0.8742	1031.43 ± 0.7	1738.4 ± 6.9	3.224 ± 0.073
298.15 K, x2 = 0.8849	1029.24 ± 0.68	1730.9 ± 6.9	2.992 ± 0.068
298.15 K, x2 = 0.8996	1025.97 ± 0.66	1716.8 ± 6.9	2.668 ± 0.061
298.15 K, x2 = 0.9257	1019.43 ± 0.62	1681.1 ± 6.8	2.093 ± 0.049
298.15 K, x2 = 0.9368	1016.38 ± 0.6	1661 ± 6.7	1.857 ± 0.044
298.15 K, x2 = 0.9557	1010.88 ± 0.57	1621.2 ± 6.6	1.487 ± 0.036
298.15 K, x2 = 0.9641	1008.33 ± 0.55	1600.8 ± 6.5	1.338 ± 0.032
298.15 K, x2 = 0.9754	1004.82 ± 0.53	1571.3 ± 6.4	1.16 ± 0.029
298.15 K, x2 = 0.99	1000.21 ± 0.5	1529.1 ± 6.3	0.978 ± 0.025
308.15 K, x2 = 0.0522	1020.49 ± 0.63	1521.3 ± 6.3	1.405 ± 0.034
308.15 K, x2 = 0.1684	1023.58 ± 0.65	1533.3 ± 6.3	1.588 ± 0.038
308.15 K, x2 = 0.2465	1025.1 ± 0.66	1549.9 ± 6.4	1.702 ± 0.04
308.15 K, x2 = 0.3481	1028.58 ± 0.68	1578.3 ± 6.5	1.979 ± 0.047
308.15 K, x2 = 0.4534	1032.02 ± 0.7	1610.1 ± 6.6	2.567 ± 0.06
308.15 K, x2 = 0.5018	1033.74 ± 0.71	1624.8 ± 6.6	2.925 ± 0.067
308.15 K, x2 = 0.5493	1035.39 ± 0.72	1639.5 ± 6.6	3.289 ± 0.075
308.15 K, x2 = 0.6504	1037.97 ± 0.74	1672 ± 6.7	3.885 ± 0.088
308.15 K, x2 = 0.752	1036.73 ± 0.73	1702.6 ± 6.8	3.814 ± 0.087
308.15 K, x2 = 0.8536	1027.32 ± 0.67	1707.3 ± 6.9	2.76 ± 0.064
308.15 K, x2 = 0.8742	1024.02 ± 0.65	1700.3 ± 6.8	2.446 ± 0.057
308.15 K, x2 = 0.8849	1022.1 ± 0.64	1694.9 ± 6.8	2.273 ± 0.053
308.15 K, x2 = 0.8996	1019.23 ± 0.62	1685.4 ± 6.8	2.034 ± 0.048
308.15 K, x2 = 0.9257	1013.52 ± 0.58	1661.1 ± 6.7	1.609 ± 0.039
308.15 K, x2 = 0.9368	1010.86 ± 0.57	1647.4 ± 6.7	1.435 ± 0.035
308.15 K, x2 = 0.9557	1006.06 ± 0.54	1618.8 ± 6.6	1.16 ± 0.029
308.15 K, x2 = 0.9641	1003.83 ± 0.52	1603.6 ± 6.5	1.051 ± 0.026
308.15 K, x2 = 0.9754	1000.77 ± 0.5	1580.6 ± 6.4	0.92 ± 0.023
308.15 K, x2 = 0.99	996.769 ± 0.52	1546.1 ± 6.3	0.785 ± 0.02
318.15 K, x2 = 0.0522	1011.19 ± 0.58	1480.9 ± 6.2	1.232 ± 0.03
318.15 K, x2 = 0.1684	1014.09 ± 0.59	1493 ± 6.2	1.35 ± 0.032
318.15 K, x2 = 0.2465	1016.08 ± 0.6	1508.9 ± 6.2	1.429 ± 0.034
318.15 K, x2 = 0.3481	1018.81 ± 0.62	1535.9 ± 6.3	1.613 ± 0.038
318.15 K, x2 = 0.4534	1022.08 ± 0.64	1566.5 ± 6.4	2.03 ± 0.048
318.15 K, x2 = 0.5018	1023.72 ± 0.65	1580.9 ± 6.5	2.287 ± 0.053
318.15 K, x2 = 0.5493	1025.31 ± 0.66	1595.4 ± 6.5	2.547 ± 0.059
318.15 K, x2 = 0.6504	1027.9 ± 0.68	1628.2 ± 6.6	2.973 ± 0.068
318.15 K, x2 = 0.752	1027.12 ± 0.67	1661.2 ± 6.7	2.905 ± 0.067
318.15 K, x2 = 0.8536	1019.09 ± 0.62	1674.5 ± 6.7	2.117 ± 0.05
318.15 K, x2 = 0.8742	1016.22 ± 0.6	1670.7 ± 6.7	1.882 ± 0.045
318.15 K, x2 = 0.8849	1014.55 ± 0.59	1667.3 ± 6.7	1.754 ± 0.042
318.15 K, x2 = 0.8996	1012.06 ± 0.57	1660.9 ± 6.7	1.576 ± 0.038
318.15 K, x2 = 0.9257	1007.08 ± 0.54	1643.6 ± 6.6	1.261 ± 0.031
318.15 K, x2 = 0.9368	1004.77 ± 0.53	1633.5 ± 6.6	1.13 ± 0.028
318.15 K, x2 = 0.9557	1000.59 ± 0.5	1611.9 ± 6.5	0.928 ± 0.023
318.15 K, x2 = 0.9641	998.66 ± 0.51	1600.4 ± 6.5	0.845 ± 0.022
318.15 K, x2 = 0.9754	996.013 ± 0.52	1582.7 ± 6.5	0.747 ± 0.019
318.15 K, x2 = 0.99	992.557 ± 0.55	1556.1 ± 6.4	0.645 ± 0.017
328.15 K, x2 = 0.0522	1002.19 ± 0.52	1451.9 ± 6.1	1.124 ± 0.027
328.15 K, x2 = 0.1684	1004.9 ± 0.54	1463.8 ± 6.1	1.194 ± 0.029
328.15 K, x2 = 0.2465	1006.77 ± 0.55	1478.8 ± 6.1	1.234 ± 0.03
328.15 K, x2 = 0.3481	1009.34 ± 0.56	1504.2 ± 6.2	1.357 ± 0.033
328.15 K, x2 = 0.4534	1012.42 ± 0.58	1533.2 ± 6.3	1.647 ± 0.039
328.15 K, x2 = 0.5018	1013.98 ± 0.59	1547.1 ± 6.4	1.827 ± 0.043
328.15 K, x2 = 0.5493	1015.5 ± 0.6	1561.1 ± 6.4	2.011 ± 0.047
328.15 K, x2 = 0.6504	1018.05 ± 0.61	1593.5 ± 6.5	2.308 ± 0.054
328.15 K, x2 = 0.752	1017.63 ± 0.61	1627.4 ± 6.6	2.241 ± 0.052
328.15 K, x2 = 0.8536	1010.77 ± 0.57	1646.4 ± 6.7	1.645 ± 0.039
328.15 K, x2 = 0.8742	1008.28 ± 0.55	1645 ± 6.7	1.47 ± 0.035
328.15 K, x2 = 0.8849	1006.83 ± 0.54	1643.2 ± 6.6	1.374 ± 0.033
328.15 K, x2 = 0.8996	1004.66 ± 0.53	1639.2 ± 6.6	1.24 ± 0.03
328.15 K, x2 = 0.9257	1000.32 ± 0.5	1627.2 ± 6.6	1.004 ± 0.025
328.15 K, x2 = 0.9368	998.296 ± 0.51	1619.9 ± 6.6	0.907 ± 0.023
328.15 K, x2 = 0.9557	994.66 ± 0.53	1603.9 ± 6.5	0.753 ± 0.02
328.15 K, x2 = 0.9641	992.982 ± 0.54	1595.2 ± 6.5	0.692 ± 0.018
328.15 K, x2 = 0.9754	990.687 ± 0.56	1581.7 ± 6.5	0.618 ± 0.017
328.15 K, x2 = 0.99	987.705 ± 0.58	1561.2 ± 6.4	0.541 ± 0.015
338.15 K, x2 = 0.0522	993.182 ± 0.55	1410.7 ± 5.9	0.987 ± 0.025
338.15 K, x2 = 0.1684	995.706 ± 0.53	1422.8 ± 6	1.026 ± 0.025
338.15 K, x2 = 0.2465	997.455 ± 0.52	1437.4 ± 6	1.048 ± 0.026
338.15 K, x2 = 0.3481	999.87 ± 0.51	1461.9 ± 6.1	1.129 ± 0.028
338.15 K, x2 = 0.4534	1002.78 ± 0.52	1490.2 ± 6.2	1.332 ± 0.032
338.15 K, x2 = 0.5018	1004.25 ± 0.53	1504 ± 6.2	1.46 ± 0.035
338.15 K, x2 = 0.5493	1005.71 ± 0.54	1518 ± 6.3	1.591 ± 0.038
338.15 K, x2 = 0.6504	1008.2 ± 0.56	1551 ± 6.4	1.799 ± 0.043
338.15 K, x2 = 0.752	1008.09 ± 0.55	1587.1 ± 6.5	1.74 ± 0.042
338.15 K, x2 = 0.8536	1002.25 ± 0.52	1613.3 ± 6.6	1.292 ± 0.032
338.15 K, x2 = 0.8742	1000.1 ± 0.5	1614.4 ± 6.6	1.161 ± 0.029
338.15 K, x2 = 0.8849	998.836 ± 0.51	1614.4 ± 6.6	1.089 ± 0.027
338.15 K, x2 = 0.8996	996.948 ± 0.52	1613 ± 6.6	0.99 ± 0.025
338.15 K, x2 = 0.9257	993.171 ± 0.54	1602.6 ± 6.5	0.813 ± 0.021
338.15 K, x2 = 0.9368	991.416 ± 0.55	1602.1 ± 6.5	0.74 ± 0.019
338.15 K, x2 = 0.9557	988.261 ± 0.57	1591.8 ± 6.5	0.627 ± 0.017
338.15 K, x2 = 0.9641	986.808 ± 0.58	1585.9 ± 6.5	0.58 ± 0.016
338.15 K, x2 = 0.9754	984.827 ± 0.59	1576.7 ± 6.4	0.524 ± 0.015
338.15 K, x2 = 0.99	982.266 ± 0.61	1562.4 ± 6.4	0.467 ± 0.013
